Measurements as given in US6759234B1, “Compositions and methods for administering to humans, peptides capable of down regulating an antigen specific immune response” (Immulogic Pharmaceutical Corporation, priority 1994, dated 2004).
Ends that are not written are not given here.

System: IgG and IgE antibodies to Fel d I, peptide X and peptide Y
Experiment: Protocol P92-01 Phase I antibody studies and skin testing with the peptides (antigenicity)
Format: in vivo, human cat-allergic subjects
Details: Week 8
Procedure: This Phase I, open-label, dose-escalating safety study was conducted to determine the safety of the administration of the peptide X (SEQ ID NO 1) and peptide Y (SEQ ID NO 2). The antigenicity of the components was also evaluated, as was the activity of the peptides in altering skin test sensitivity.
Safety was assessed by evaluations of clinical laboratory parameters, physical examination, antibody studies and adverse experiences. Activity was assessed by analysis of skin testing. Prick and intradermal skin testing with both affinity purified native Fel d I and the peptides were performed one week prior to, and two and six weeks following the treatment period. Sixteen patients were treated with peptides X and Y during the study. […] Adverse events recorded with the trial were typical of those seen in open label allergy studies. Patients were all cat allergic individuals in this trial and tolerated dose orders of magnitude higher than can be achieved with conventional immunotherapy.

Sequence: KALPVVLENARILKNCVDAKMTEEDKE [peptide Y]
- skin test reaction to the peptide in a single patient: delayed local reaction

Sequence: KRDVDLFLTGTPDEYVEQVAQYKALPV [peptide X]
- skin test reaction to the peptide in a single patient: substantial skin test reaction
